Test results as given in patent US8163953B2, “Compounds for lysosomal modulation and methods of use” (University of Connecticut, priority 2008, dated 2012).
“Also recorded” adds a separate entry of the source. Like-named read-outs stand apart in the source and are kept apart here. Each block holds one molecule with its values, some of them ahead of it. Peptide text beside a SMILES is read from it. * marks the point of attachment. Cbz = O=C(OCc1ccccc1)*; CHN2 = [N-]=[N+]=C*

Columns and labels:
cathepsin = assay: Cathepsin enhancement and synaptic marker recovery in a protein accumulation model; assay type: cell-based
Excerpt: Increased lysosomal enzyme activities are an indicator of cellular responses aimed at compensating for accumulating material. Evidence of compensatory up-regulation of lysosomal enzymes in response to lysosome stress and protein accumulation has led to the identification of a pharmacological avenue for promoting such responses. This pharmacological avenue has been used to identify and synthesize the compounds described herein, which are effective as lysosomal modulators. The base structures of PADK and Z-Phe-Phe-diazomethylketone (PPDK) were used for the design of new lysosomal modulators because PADK and PPDK enhance cathepsin levels at 0.3-10 μM, resulting in 70-80% recovery of synaptic markers that were lost in a protein accumulation model. Other modulators, including diazoacetyl-DL-2-aminohexanoic acid methyl ester, require up to 30 μM to produce neuroprotective effects, but result in only 24-42% synaptic recovery.

cathepsin D = assay: Cathepsin D up-regulation in hippocampal slice cultures (immunoblot); assay type: cell-based; conditions: for EC50: increase of cathepsin D levels, slices treated daily for 3-6 days; for potency of increasing cathepsin D levels (in words) / EC2-fold (concentration needed for a 2-fold increase in cathepsin levels): hippocampal slice cultures; for potency of increasing cathepsin D levels (in words): treated daily 3-6 days
Experimental: The cultured slices were treated daily with different modulator concentrations for 3-6 days. […] BW1001 was not tested further due to its low potency.
The hippocampal slices were maintained in culture for 10-12 days to stabilize, then were treated daily with different modulator concentrations for 3 days. Then they were harvested rapidly in ice-cold buffer and homogenized in the presence of protease inhibitors.
Equal protein aliquots of the slice samples were subjected to immunoblotting to label the proform and the active form of cathepsin D (CD). FIG. 3A is an immunoblot showing PADK induced increases in the proform and active form of cathepsin D in hippocampal slice cultures. FIG. 3B is a graph showing the dose-dependent up-regulation of cathepsin D in hippocampal slice cultures by PADK and by BW1002.
Slices were treated daily for 3 days with 10 μM compound, then harvested rapidly for immunoblot assessment of active CD levels (ANOVA: P<0.0001). FIG. 5 is a bar graph showing the results of these tests. The data in FIG. 5 indicate that the non-peptide lysosomal modulators provide potent lysosomal modulation that enhances clearance of pathogenic accumulations. All data represent means±SEM.

[1] = tested on: pre- and postsynaptic markers; assay: Synaptic marker assessment in treated slice cultures
Experimental: (§4) Potential toxicity was tested by assessing synaptic markers and subjecting media samples from the treated slice cultures to a standard LDH assay.

[2] = tested on: hippocampal slice cultures; assay: LDH assay on media of treated slice cultures; conditions: for LDH release: media samples from treated slice cultures
Experimental: as §4

[3] = tested on: hippocampal slice cultures
Experimental: as §4

[4] = tested on: pre- and postsynaptic markers
Experimental: as §4

[5] = tested on: PDGF-APPSwInd transgenic mice; assay: Synaptic protection in PDGF-APPSwInd transgenic mice (GluR1); assay type: in vivo; conditions: daily i.p.; BW1005 45 mg/kg, BW1002 25 mg/kg
Experimental: Modulator BW1005, was administered daily i.p. into an Alzheimer's Disease model —PDGF-APPSwInd transgenic mice. The transgenic mice are hemizygotes for a mutant form of the human APP gene containing both the Swedish (K670N/M671L) and the Indiana (V717F) mutations (APPSwInd). […] Based on its potency in relation to PADK's effect in slices and mice, BW1005 was injected i.p. daily at a dose of 45 mg/kg.
The brains of the mice were dissected and assessed for the postsynaptic marker GluR1. […] FIG. 7 is a bar graph showing the mean GluR1 measure ±SEM for each group studied (post hoc test: p=0.05). […] Changes in cathepsin levels may explain the synaptic protection.

APPswe/PS1ΔE9 mice = assay: Spontaneous alternation behavior in a T-maze, APPswe/PS1ΔE9 mice; assay type: in vivo
Experimental: (§1) The improvement of synaptic integrity by PADK was also associated with the reduction of behavioral deficits in the mouse models. FIG. 9C is a bar graph showing rotorod performance for several groups of mice. […] FIG. 9D is a bar graph illustrating spontaneous alternation behavior in the second type of Alzheimer's mouse model (APPswe/PS1ΔE9). APPswe/PS1ΔE9 mice treated with vehicle or PADK were tested on the hippocampal-dependent task of spontaneous alternation behavior in a T-maze. The mice were allowed to explore starting from the intersection of a T-maze, and were monitored for the order of entries into the three arms (arms A, B, and C). In control mice, every third explored arm is usually different than the previous two (e.g., A-B-C, B-A-C, etc.; the third decision being an alternation). Alzheimer's mice, on the other hand, frequently go back into one of the previous two arms explored (e.g., A-B-A, C-B-B), thus reducing the percent alternations. […] Open field mobility assessment confirmed no change in exploratory mobility across the different groups of mice.

APPSwInd mice = assay: Rotarod performance of APPSwInd mice; assay type: in vivo; conditions: trials on the 8th and 9th injection days
Experimental: as §1

[6] = tested on: APPSwInd and APPswe/PS1ΔE9 mice; assay: Synaptic markers in APPSwInd and APPswe/PS1ΔE9 mice treated with PADK; assay type: in vivo; conditions: two Alzheimer's mouse models, immunoblot of homogenates
Experimental: To compare the BW1002/1005 results to previous PADK work, homogenate samples were analyzed by immunoblot for the presynaptic protein synapsin II and postsynaptic glutamatergic marker GluR1.

cathepsin B = assay: In vivo lysosomal modulation by PADK in mice
Experimental: The enhanced cathepsin staining was evident in many brain regions and co-localized with the lysosomal marker LAMP-1.
(§2) The modulator PADK up-regulates cathepsins without causing adverse effects. Hippocampal homogenates were assessed for the mice. FIGS. 6A-D are graphs showing the effects of PADK doping on various biological and physical attributes of 10 month old mice.
(§3) FIG. 6D is a graph showing the results of motor skills and spatial memory tests. Motor skills and coordination were assessed using a variable-speed rotating rod and measuring the time the animal could remain moving on the rod. Spatial memory was tested with a conditions place preference (CPP) North-South paradigm in which the animal must remember where a previous reward was presented. Thus, the lysosomal modulation occurred in the absence of any evident effects on liver/kidney integrity, blood urea levels, or on normal brain functionality.

[7] = Adverse-effect assessment of PADK dosing in 10 month old mice; assay type: in vivo
Experimental: as §2, §3

cathepsins B and D = conditions: in vivo; cited from earlier work
[8] = tested on: human paired helical filaments (PHFs); assay: Chloroquine-induced hippocampal slice model of protein accumulation, PHF immunostaining; assay type: cell-based; conditions: 6 days chloroquine, then 3 μM for 2 days
Excerpt: FIGS. 2A-C are immunostains of hippocampal slice cultures for human paired helical filaments (PHFs). The pathogenic PHF was undetectable in control tissue, FIG. 2A, whereas cellular accumulation of PHF was evident after 6 days of chloroquine treatment followed by 2 days of washout, FIG. 2B. […] Size bar: 16 μm.

Structure (SMILES): CCCCC(NC(=O)C=[N+]=[N-])C(=O)OC (racemic) [diazoacetyl-DL-2-aminohexanoic acid methyl ester]
- concentration required to produce neuroprotective effects (cathepsin): up to 30 μM

Structure (SMILES): [N-]=[N+]=CC(=O)N(Cc1ccccc1)C[C@@H](O)[C@H](Cc1ccccc1)NC(=O)OCc1ccccc1 [BW1003, (2R,3S)-3-Cbz amino-2-hydroxy-4-phenyl-1-(N-benzyl-2-diazo-ethanamido) butane]
- synaptic decline (pre- and postsynaptic markers) [1]: caused evident synaptic decline
- LDH release as % of maximal LDH release produced by total cellular disruption (1% TX-100) ([2]; after 6 days of treatment): < 2%
- LDH release [2]: time-dependent increase in LDH activity
- EC50 (cathepsin D): 2 µM

Structure (SMILES): O=C(NC(Cc1ccccc1)[C@H](O)CN(Cc1ccccc1)C(=O)c1ccccc1)OCc1ccccc1 (stereo partly drawn) [BW1005, (2R,3S)-3-Cbz amino-2-hydroxy-4-phenyl-1-(N-benzylbenzamide) butane]
- synaptic decline (pre- and postsynaptic markers) [1]: did not cause synaptic decline or LDH release
- LDH release [2]: did not cause synaptic decline or LDH release
- synaptic protection: postsynaptic marker GluR1 in brain [5]: significant synaptic protection; also recorded: greater than that provided by PADK
- potency of increasing cathepsin D levels (in words) (cathepsin D): potencies at or near that of PADK
- EC50 (cathepsin D): 15 µM

Structure (SMILES): C[C@H](NC(=O)[C@H](Cc1ccccc1)NC(=O)OCc1ccccc1)C(=O)C=[N+]=[N-] [PADK, Z-Phe-Ala-diazomethylketone]
- spontaneous alternations (APPswe/PS1ΔE9 mice): significantly improved alternations
- Rotarod performance across trials (APPSwInd mice): enabled the APPSwInd mice to improve across Rotarod trials
- GluR1 deficit [6]: significantly reduced the GluR1 deficit
- immunostaining for the active form of cathepsin B in hippocampal cells (cathepsin B; 10-12-month old mice, 9 daily i.p. injections): dramatic increase in immunostaining
- cathepsin levels in hippocampal homogenates (cathepsin B; 10 month old mice, across different dosages): dose-dependent increases in cathepsin levels
- synaptic decline (pre- and postsynaptic markers) [1]: did not cause synaptic decline or LDH release
- ALT (damage to liver function) [7]: no change in either ALT or BUN
- BUN (kidney compromise) [7]: no change in either ALT or BUN
- adverse effects on synaptic markers GluR1 and synaptophysin [7]: No adverse effects were evident
- motor skills and coordination (variable-speed rotating rod) [7]: did not impair motor skills, coordination, or spatial memory
- spatial memory (CPP North-South paradigm) [7]: did not impair motor skills, coordination, or spatial memory
- rat brain levels of cathepsins B and D (cathepsins B and D): significant increases
- LDH release [2]: did not cause synaptic decline or LDH release
- clearance of chloroquine-induced PHF deposits in CA1 neurons [8]: clearance of most neuronal deposits of PHF material
- EC2-fold (concentration needed for a 2-fold increase in cathepsin levels) (cathepsin D): 3.2 µM
- EC50 (cathepsin D; unit μm [sic]): 10 µM
- proform and active form of cathepsin D (cathepsin D; slices treated daily for 3 days, immunoblot): increased

Now from value to molecule, other results behind:

- EC50 (cathepsin D): 20 µM
Structure (SMILES): O=C(NC(Cc1ccccc1)[C@H](O)CNCc1ccccc1)OCc1ccccc1 (stereo partly drawn) [BW1001, (2R,3S)-3-Cbz amino-2-hydroxy-4-phenyl-1-benzyl amino butane]

- EC50 (cathepsin D): 3 µM
Structure (SMILES): CC(=O)N(Cc1ccccc1)C[C@@H](O)C(Cc1ccccc1)NC(=O)OCc1ccccc1 (stereo partly drawn) [BW1002, (2R,3S)-3-Cbz amino-2-hydroxy-4-phenyl-1-(N-benzylacetamido) butane]
- synaptic decline (pre- and postsynaptic markers) [1]: did not cause synaptic decline or LDH release
- LDH release [2]: did not cause synaptic decline or LDH release

- EC50 (cathepsin D): 20 µM
Structure (SMILES): CC(=O)N(Cc1cccc2ccccc12)C[C@@H](O)[C@H](Cc1ccccc1)NC(=O)OCc1ccccc1 [BW1004, (2R,3S)-3-Cbz amino-2-hydroxy-4-phenyl-1-(N-naphthylmethylethanamido) butane]
- LDH release [3]: did not produce evident toxicity
- synaptic decline (pre- and postsynaptic markers) [4]: did not produce evident toxicity
- potency of increasing cathepsin D levels (in words) (cathepsin D): potencies at or near that of PADK

- EC50 (cathepsin D; unit μm [sic]): 14 µM
Structure (SMILES): [N-]=[N+]=CC(=O)[C@H](Cc1ccccc1)NC(=O)[C@H](Cc1ccccc1)NC(=O)OCc1ccccc1 [PPDK, Z-Phe-Phe-diazomethylketone] (Cbz-Phe-Phe-CHN2)
- EC2-fold (concentration needed for a 2-fold increase in cathepsin levels) (cathepsin D): ~5 µM
